The assay addresses T1, ABCC1 (Homo sapiens, UniProt P33527).
T1 construct: membrane preparation of ABCC1-expressing H69AR cells
In words: vanadate-sensitive ATPase stimulation in H69AR membranes; daunorubicin and rhodamine […] transport inhibition in H69AR cells. It counts as cell-based.

T1 sequence (P33527 whole entry): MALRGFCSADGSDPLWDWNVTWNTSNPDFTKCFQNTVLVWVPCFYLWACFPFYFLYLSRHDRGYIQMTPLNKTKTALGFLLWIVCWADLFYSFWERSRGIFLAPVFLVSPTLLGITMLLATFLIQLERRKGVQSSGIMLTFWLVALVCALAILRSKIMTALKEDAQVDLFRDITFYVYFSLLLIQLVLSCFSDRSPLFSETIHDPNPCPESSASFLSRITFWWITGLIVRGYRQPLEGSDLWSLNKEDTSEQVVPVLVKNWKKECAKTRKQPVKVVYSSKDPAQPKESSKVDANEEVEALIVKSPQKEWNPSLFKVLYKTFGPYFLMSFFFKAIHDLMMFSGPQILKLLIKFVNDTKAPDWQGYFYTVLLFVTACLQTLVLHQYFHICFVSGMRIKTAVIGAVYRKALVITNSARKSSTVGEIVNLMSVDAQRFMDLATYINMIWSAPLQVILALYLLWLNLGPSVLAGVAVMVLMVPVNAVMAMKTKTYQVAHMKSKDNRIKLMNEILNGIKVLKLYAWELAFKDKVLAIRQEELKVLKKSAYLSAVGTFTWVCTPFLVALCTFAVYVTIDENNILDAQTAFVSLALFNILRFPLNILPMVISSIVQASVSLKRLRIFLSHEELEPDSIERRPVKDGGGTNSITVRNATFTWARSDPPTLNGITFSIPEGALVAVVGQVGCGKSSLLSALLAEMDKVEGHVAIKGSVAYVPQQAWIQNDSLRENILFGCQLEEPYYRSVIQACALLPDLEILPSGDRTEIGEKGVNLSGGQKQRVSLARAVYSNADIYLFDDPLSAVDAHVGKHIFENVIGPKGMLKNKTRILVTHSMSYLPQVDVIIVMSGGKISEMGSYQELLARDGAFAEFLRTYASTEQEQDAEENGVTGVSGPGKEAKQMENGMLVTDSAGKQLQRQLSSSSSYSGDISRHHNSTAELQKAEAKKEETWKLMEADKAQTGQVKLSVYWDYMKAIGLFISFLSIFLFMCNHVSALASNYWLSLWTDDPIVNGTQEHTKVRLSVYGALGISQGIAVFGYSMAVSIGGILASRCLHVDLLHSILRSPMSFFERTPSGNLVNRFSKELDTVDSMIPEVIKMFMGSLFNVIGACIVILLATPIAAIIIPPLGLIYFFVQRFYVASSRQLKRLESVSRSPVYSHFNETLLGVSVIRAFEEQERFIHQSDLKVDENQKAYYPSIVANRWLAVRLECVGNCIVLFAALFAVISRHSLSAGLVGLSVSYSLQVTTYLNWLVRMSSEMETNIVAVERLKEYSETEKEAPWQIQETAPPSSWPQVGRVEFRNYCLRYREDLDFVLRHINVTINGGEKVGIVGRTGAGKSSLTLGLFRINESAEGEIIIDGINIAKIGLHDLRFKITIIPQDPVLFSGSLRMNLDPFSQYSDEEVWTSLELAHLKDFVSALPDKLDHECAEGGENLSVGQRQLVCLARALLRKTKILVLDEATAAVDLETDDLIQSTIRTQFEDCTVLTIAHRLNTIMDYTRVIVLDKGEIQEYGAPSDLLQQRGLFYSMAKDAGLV

For `COC(=O)CC(SC[C@H](NC(=O)CC[C@H](N)C(=O)O)C(=O)NCC(=O)O)C(=O)OC` (stereo partly shown) [compound 9, DMS-SG], the “vanadate-sensitive ATPase stimulation in H69AR membranes; daunorubicin and rhoda” value is on record as ~ 200 µM.
